These results are taken from ChEMBL document CHEMBL2203167, “Structural modifications of 5,6-dihydroxypyrimidines with anti-HIV activity” (Bioorg Med Chem Lett, 2012).

Data set [1] has as its system Human immunodeficiency virus 1. Briefly: Antiviral activity against HIV1 3B infected in human C8166 cells assessed as inhibition of syncytia after 3 days. The following applies: Human immunodeficiency virus 1, 3B, C8166, 72 h. The class given is functional, organism-based.
Data set [2] can be described thus: Therapeutic index, ratio of CC50 for human C8166 cells to EC50 for HIV1 3B. The class given is cell-based. Particulars: read-out: Ratio CC50/EC50.
Data set [3] is described as follows: Cytotoxicity against human C8166 cells after 3 days by MTT assay. It is filed as cell-based. Background: Tetrazolium assays rely on reduction of a dye to a coloured formazan, in cell work by metabolically active cells.

pEC50: −log10 of the molar value.

As usually defined, the pEC50 is the negative decadic logarithm of the EC50, by convention in mol/L. Usually CC50 stands for the concentration that lowers cell viability or growth by half. In the case of `COc1ccc(CNC(=O)Nc2nc(C(C)(C)NC(=O)OCc3ccccc3)nc(O)c2O)cc1`, the pEC50 in data set [1] is 4.03. Besides, the selectivity ratio in data set [2] was 4.46. Further, the CC50 at 72 h in data set [3] is more than 500 µM.

Regarding `CC(C)(NC(=O)OCc1ccccc1)c1nc(O)c(O)c(C(=O)NCCc2ccccc2)n1`, in data set [1], the pEC50 was 4.94. Moreover, the selectivity ratio in data set [2] amounted to 3.32. This compound showed a CC50 at 72 h in data set [3] of 38.5 µM.

Take `CC(C)(NC(=O)OCc1ccccc1)c1nc(O)c(O)c(C(=O)N/N=C/c2ccc(F)cc2)n1`: the pEC50 in data set [1] is 4.56. Moreover, the selectivity ratio in data set [2] was 13.7. The compound further came in with a CC50 at 72 h in data set [3] of 378 µM.

With `CC(C)(NC(=O)OCc1ccccc1)c1nc(O)c(O)c(C(=O)NCC2CC2)n1`, the pEC50 in data set [1] is 4.61. Moreover, the selectivity ratio in data set [2] was 8.33. In addition, the CC50 at 72 h in data set [3] is 204 µM.

With `COc1cc(CNC(=O)c2nc(C(C)(C)NC(=O)OCc3ccccc3)nc(O)c2O)cc(OC)c1OC`, the pEC50 in data set [1] was 4.91. The selectivity ratio in data set [2] turned out to be 8.89. This compound displayed a CC50 at 72 h in data set [3] of 110 µM.

Consider `COCCNC(=O)Nc1nc(C(C)(C)NC(=O)OCc2ccccc2)nc(O)c1O`, for which, in data set [1], the pEC50 was 4.28. Besides, the selectivity ratio in data set [2] was more than 9.13. In addition, the CC50 at 72 h in data set [3] was more than 500 µM.

As to `COCCCNC(=O)c1nc(C(C)(C)NC(=O)OCc2ccccc2)nc(O)c1O`, in data set [1], the pEC50 was 5.08. For the same compound, the selectivity ratio in data set [2] was determined as 31.2. In data set [3], it took 259 µM to reach half-maximal cytotoxicity (CC50 at 72 h).

Take `CC(C)(NC(=O)OCc1ccccc1)c1nc(O)c(O)c(C(=O)NCc2ccccc2)n1`: the pEC50 in data set [1] was 6.49. For the same compound, in data set [2], the selectivity ratio came to 128. For the same compound, the half-maximal cytotoxic concentration (CC50) at 72 h in data set [3] stood at 41.4 µM.

With `CC(C)(NC(=O)OCc1ccccc1)c1nc(O)c(O)c(C(=O)NCc2ccc(C(F)(F)F)cc2)n1`, the pEC50 in data set [1] was 6.62. Also, the selectivity ratio in data set [2] was determined as 244. The compound further gave a CC50 at 72 h in data set [3] of 58.1 µM.

Turning to `CC(C)(NC(=O)OCc1ccccc1)c1nc(O)c(O)c(C(=O)NCCc2ccc(F)cc2)n1`, the pEC50 in data set [1] was 5.06. Besides, in data set [2], the selectivity ratio is 4.11. The CC50 at 72 h in data set [3] stood at 35.4 µM.

With `COCCNC(=O)c1nc(C(C)(C)NC(=O)OCc2ccccc2)nc(O)c1O`, the pEC50 in data set [1] is 4.59. Also, the selectivity ratio in data set [2] was 13.4. In data set [3], this compound showed a CC50 at 72 h of 348 µM.

Take `CC(C)(NC(=O)OCc1ccccc1)c1nc(O)c(O)c(C(=O)NN)n1`: in data set [1], the pEC50 is 3.78. Further, the selectivity ratio in data set [2] is more than 3.37. In data set [3], this compound showed a CC50 at 72 h of more than 500 µM.

On to `CC(C)(NC(=O)OCc1ccccc1)c1nc(O)c(O)c(C(=O)NCc2ccccc2Cl)n1`, for which, in data set [1], the pEC50 was 6.85. Also, the selectivity ratio in data set [2] is 396. Moreover, the CC50 at 72 h in data set [3] amounted to 53.9 µM.

Regarding `CC(C)(NC(=O)OCc1ccccc1)c1nc(O)c(O)c(NC(=O)NCc2ccc(F)cc2)n1`, in data set [1], the pEC50 is 5.01. In data set [2], the selectivity ratio turned out to be 8.21. This compound also came in with a CC50 at 72 h in data set [3] of 81.1 µM.

With `Cc1ccc(CNC(=O)c2nc(C(C)(C)NC(=O)OCc3ccccc3)nc(O)c2O)cc1`, the pEC50 in data set [1] was 6.26. The selectivity ratio in data set [2] turned out to be 383. For the same compound, the CC50 at 72 h in data set [3] was 234 µM.

As to `CC(C)(NC(=O)OCc1ccccc1)c1nc(O)c2oc(=O)[nH]c2n1`, the pEC50 in data set [1] was 4.13. For the same compound, the selectivity ratio in data set [2] is more than 7.83. In data set [3], this compound registered a CC50 at 72 h of more than 500 µM.

For `Cc1cn([C@H]2C[C@H](N=[N+]=[N-])[C@@H](CO)O2)c(=O)[nH]c1=O` [ZIDOVUDINE], in data set [1], the pEC50 was 7.72. For the same compound, in data set [2], the selectivity ratio came to 274000.

For the compound `CC(C)(NC(=O)OCc1ccccc1)c1nc(O)c(O)c(C(=O)NCCc2cc3ccccc3[nH]2)n1`, in data set [1], the pEC50 is 5.15. Further, the selectivity ratio in data set [2] came to 4.76. This compound also registered a CC50 at 72 h in data set [3] of 34.1 µM.

Regarding `COc1ccc(CNC(=O)c2nc(C(C)(C)NC(=O)OCc3ccccc3)nc(O)c2O)cc1`, the negative-log EC50 (pEC50) in data set [1] was 6.82. For the same compound, in data set [2], the selectivity ratio was determined as 1090. The CC50 at 72 h in data set [3] amounted to 164 µM.
